Data taken from PubChem BioAssay AID1745844 (Carcinogenic Potency Database (CPDB), 2022).
Activity calls are given as the source filed them. The rule behind the calls is not given here.

System: rodent lifetime carcinogenesis bioassay, tumor incidence TD50
Assay: chronic cancer bioassays in animals – CPDB, compiled studies (AID 1745844)

Clc1cccc(-c2ccc(Cl)c(Cl)c2Cl)c1Cl
TD50 (mouse, strain BALB/cJ, males, in feed, site: liver, lesion: hepatoma, dosed 26 weeks, study length 47 weeks): 64.6 mg/kg/day
TD50 (mouse, strain BALB/cJ, males, in feed, site: liver, lesion: hepatoma, dosed 47 weeks, study length 47 weeks): 9.58 mg/kg/day
TD50 (rat, strain Fischer 344, females, in feed, site: liver, lesion: adenoma, NOS, dosed 105 weeks, study length 105 weeks): 34.8 mg/kg/day
carcinogen call (rat, strain Fischer 344, females, in feed, site: stomach, lesion: adenocarcinoma, NOS, dosed 105 weeks, study length 105 weeks): a
TD50 (rat, strain Fischer 344, males, in feed, site: all sites, lesion: leukemia + lymphoma, dosed 105 weeks, study length 105 weeks): 5.94 mg/kg/day
TD50 (rat, strain Fischer 344, males, in feed, site: all sites, lesion: leukemia, dosed 105 weeks, study length 105 weeks): 6.75 mg/kg/day
TD50 (rat, strain Fischer 344, males, in feed, site: any site (literature study), lesion: several types, types named in the paper, dosed 105 weeks, study length 105 weeks): 3.23 mg/kg/day
TD50 (rat, strain Fischer 344, males, in feed, site: cecum + jejunum + stomach, lesion: adenocarcinoma, NOS, dosed 105 weeks, study length 105 weeks): 34.6 mg/kg/day
TD50 (rat, strain Fischer 344, males, in feed, site: liver, lesion: adenoma, NOS + hepatocellular carcinoma, dosed 105 weeks, study length 105 weeks): 15.1 mg/kg/day
TD50 (rat, strain Fischer 344, males, in feed, site: liver, lesion: hepatocellular adenoma + hepatocellular carcinoma + neoplastic nodule, dosed 105 weeks, study length 105 weeks): 20.8 mg/kg/day
TD50 (rat, strain Sprague-Dawley, females, in feed, site: liver, lesion: cholangioma, dosed 104 weeks, study length 104 weeks): 15.3 mg/kg/day
TD50 (rat, strain Sprague-Dawley, females, in feed, site: liver, lesion: hepatocellular adenoma, dosed 104 weeks, study length 104 weeks): 3.07 mg/kg/day
TD50 (rat, strain Sprague-Dawley, females, in feed, site: liver, lesion: hepatocellular carcinoma, dosed 104 weeks, study length 104 weeks): 28.6 mg/kg/day
TD50 (rat, strain Sprague-Dawley, females, in feed, site: liver, lesion: several types, types named in the paper, dosed 104 weeks, study length 104 weeks): 2.82 mg/kg/day
TD50 (rat, strain Sprague-Dawley, males, in feed, site: liver, lesion: several types, types named in the paper, dosed 104 weeks, study length 104 weeks): 55.1 mg/kg/day
TD50 (rat, strain Sprague-Dawley, males, in feed, site: thyroid gland, lesion: follicular-cell adenoma, dosed 104 weeks, study length 104 weeks): 20.2 mg/kg/day
TD50 (rat, strain Sprague-Dawley, males, in feed, site: thyroid gland, lesion: follicular-cell carcinoma, dosed 104 weeks, study length 104 weeks): 89 mg/kg/day
TD50 (rat, strain Sprague-Dawley, males, in feed, site: thyroid gland, lesion: several types, types named in the paper, dosed 104 weeks, study length 104 weeks): 16.1 mg/kg/day

CC1=C(C(=O)OCCN(Cc2ccccc2)c2ccccc2)C(c2cccc([N+](=O)[O-])c2)C(P2(=O)OCC(C)(C)CO2)=C(C)N1 (stereo unspecified)
carcinogen call (mouse, strain B6C3F1, females, in feed, site: any site (literature study), lesion: several types, types named in the paper, dosed 104 weeks, study length 104 weeks): negative (inactive)
TD50 (mouse, strain B6C3F1, females, in feed, site: liver, lesion: hepatocellular adenoma, dosed 104 weeks, study length 104 weeks): 11500 mg/kg/day (inactive)
TD50 (mouse, strain B6C3F1, females, in feed, site: liver, lesion: hepatocellular carcinoma, dosed 104 weeks, study length 104 weeks): 7430 mg/kg/day (inactive)
carcinogen call (mouse, strain B6C3F1, females, in feed, site: lung, lesion: alveolar/bronchiolar adenoma, dosed 104 weeks, study length 104 weeks): negative (inactive)
TD50 (mouse, strain B6C3F1, females, in feed, site: lung, lesion: alveolar/bronchiolar carcinoma, dosed 104 weeks, study length 104 weeks): 12300 mg/kg/day (inactive)
TD50 (mouse, strain B6C3F1, females, in feed, site: lymph node, lesion: malignant lymphoma, dosed 104 weeks, study length 104 weeks): 276 mg/kg/day (inactive)
carcinogen call (mouse, strain B6C3F1, males, in feed, site: any site (literature study), lesion: several types, types named in the paper, dosed 104 weeks, study length 104 weeks): negative (inactive)
carcinogen call (mouse, strain B6C3F1, males, in feed, site: liver, lesion: hepatocellular adenoma, dosed 104 weeks, study length 104 weeks): negative (inactive)
carcinogen call (mouse, strain B6C3F1, males, in feed, site: liver, lesion: hepatocellular carcinoma, dosed 104 weeks, study length 104 weeks): negative (inactive)
carcinogen call (mouse, strain B6C3F1, males, in feed, site: lung, lesion: alveolar/bronchiolar adenoma, dosed 104 weeks, study length 104 weeks): negative (inactive)
carcinogen call (mouse, strain B6C3F1, males, in feed, site: lung, lesion: alveolar/bronchiolar carcinoma, dosed 104 weeks, study length 104 weeks): negative (inactive)
TD50 (rat, strain F344/DuCrj, females, in feed, site: any site (literature study), lesion: several types, types named in the paper, dosed 104 weeks, study length 104 weeks): 244 mg/kg/day (inactive)
carcinogen call (rat, strain F344/DuCrj, females, in feed, site: liver, lesion: hepatocellular adenoma, dosed 104 weeks, study length 104 weeks): negative (inactive)
carcinogen call (rat, strain F344/DuCrj, males, in feed, site: any site (literature study), lesion: several types, types named in the paper, dosed 104 weeks, study length 104 weeks): negative (inactive)
TD50 (rat, strain F344/DuCrj, males, in feed, site: liver, lesion: several types, types named in the paper, dosed 104 weeks, study length 104 weeks): 2310 mg/kg/day (inactive)

O=NN1CCCCC1C(=O)O (stereo unspecified)
TD50 (rat, strain MRC, females, in drinking water, site: any site (literature study), lesion: several types, types named in the paper, dosed 75 weeks, study length 104 weeks): 4.99 mg/kg/day (inactive)
TD50 (rat, strain MRC, males, in drinking water, site: any site (literature study), lesion: several types, types named in the paper, dosed 75 weeks, study length 104 weeks): 3.82 mg/kg/day (inactive)

Nc1ccc(N=Nc2ccc(-c3ccc(N=Nc4c(S(=O)(=O)O)cc5cc(S(=O)(=O)O)c(N=Nc6ccccc6)c(O)c5c4N)cc3)cc2)c(N)c1
TD50 (mouse, strain ICR, both sexes, in drinking water, site: any site (literature study), lesion: several types, types named in the paper, dosed 57 weeks, study length 57 weeks): 32 mg/kg/day
TD50 (mouse, strain ICR, both sexes, in drinking water, site: liver, lesion: hepatoma, dosed 57 weeks, study length 57 weeks): 71.6 mg/kg/day
TD50 (mouse, strain ICR, both sexes, in drinking water, site: mammary gland, lesion: several types, types named in the paper, dosed 57 weeks, study length 57 weeks): 262 mg/kg/day
TD50 (rat, strain Fischer 344, females, in feed, site: any site (literature study), lesion: several types, types named in the paper, dosed 13 weeks, study length 13 weeks): 2.61 mg/kg/day
TD50 (rat, strain Fischer 344, females, in feed, site: liver, lesion: hepatocellular adenoma + hepatocellular carcinoma + neoplastic nodule, dosed 13 weeks, study length 13 weeks): 2.61 mg/kg/day
TD50 (rat, strain Fischer 344, females, in feed, site: liver, lesion: neoplastic nodule, dosed 13 weeks, study length 13 weeks): 2.61 mg/kg/day
TD50 (rat, strain Fischer 344, males, in feed, site: any site (literature study), lesion: several types, types named in the paper, dosed 13 weeks, study length 13 weeks): 0.945 mg/kg/day
TD50 (rat, strain Fischer 344, males, in feed, site: liver, lesion: hepatocellular adenoma + hepatocellular carcinoma + neoplastic nodule, dosed 13 weeks, study length 13 weeks): 0.945 mg/kg/day
TD50 (rat, strain Fischer 344, males, in feed, site: liver, lesion: hepatocellular carcinoma + neoplastic nodule, dosed 13 weeks, study length 13 weeks): 0.945 mg/kg/day
TD50 (rat, strain Fischer 344, males, in feed, site: liver, lesion: hepatocellular carcinoma, dosed 13 weeks, study length 13 weeks): 2.22 mg/kg/day

OC[C@@H](O)[C@H]1O[C@@H]2O[C@H](C(Cl)(Cl)Cl)O[C@@H]2[C@H]1O
TD50 (mouse, strain B6AKF1, females, oral dosing, site: any site (literature study), lesion: several types, types named in the paper, dosed 76 weeks, study length 76 weeks): 17.3 mg/kg/day (inactive)
carcinogen call (mouse, strain B6AKF1, females, oral dosing, site: liver, lesion: hepatoma, dosed 76 weeks, study length 76 weeks): negative (inactive)
TD50 (mouse, strain B6AKF1, females, oral dosing, site: lung, lesion: adenoma, dosed 76 weeks, study length 76 weeks): 19.5 mg/kg/day (inactive)
carcinogen call (mouse, strain B6AKF1, males, oral dosing, site: any site (literature study), lesion: several types, types named in the paper, dosed 76 weeks, study length 76 weeks): negative (inactive)
carcinogen call (mouse, strain B6AKF1, males, oral dosing, site: liver, lesion: hepatoma, dosed 76 weeks, study length 76 weeks): negative (inactive)
carcinogen call (mouse, strain B6AKF1, males, oral dosing, site: lung, lesion: adenoma, dosed 76 weeks, study length 76 weeks): negative (inactive)
carcinogen call (mouse, strain B6C3F1, females, oral dosing, site: any site (literature study), lesion: one or several types, types not named, dosed 76 weeks, study length 76 weeks): negative (inactive)
carcinogen call (mouse, strain B6C3F1, females, oral dosing, site: liver, lesion: hepatoma, dosed 76 weeks, study length 76 weeks): negative (inactive)
carcinogen call (mouse, strain B6C3F1, females, oral dosing, site: lung, lesion: several types, types named in the paper, dosed 76 weeks, study length 76 weeks): negative (inactive)
TD50 (mouse, strain B6C3F1, males, oral dosing, site: any site (literature study), lesion: several types, types named in the paper, dosed 76 weeks, study length 76 weeks): 4.07 mg/kg/day (inactive)
TD50 (mouse, strain B6C3F1, males, oral dosing, site: liver, lesion: hepatoma, dosed 76 weeks, study length 76 weeks): 7.27 mg/kg/day (inactive)
TD50 (mouse, strain B6C3F1, males, oral dosing, site: lung, lesion: adenoma, dosed 76 weeks, study length 76 weeks): 11.2 mg/kg/day (inactive)

CC[C@]1(O)C[C@@H]2CN(CCc3c([nH]c4ccccc34)[C@@](C(=O)OC)(c3cc4c(cc3OC)N(C)[C@H]3[C@@](O)(C(=O)OC)[C@H](OC(C)=O)[C@]5(CC)C=CCN6CC[C@]43[C@@H]65)C2)C1
carcinogen call (rat, strain BR 46, males, i.v., site: any site (literature study), lesion: several types, types named in the paper, dosed 52 weeks, study length 104 weeks): negative (inactive)

CC(=O)OCC(=O)[C@@]12N=C(C)O[C@@H]1C[C@H]1[C@@H]3CCC4=CC(=O)C=C[C@]4(C)[C@H]3[C@@H](O)C[C@@]12C
TD50 (rat, strain Charles River CD (Sprague-Dawley), females, in feed, site: head, lesion: osteosarcoma, dosed 104 weeks, study length 104 weeks): 66.8 mg/kg/day
carcinogen call (rat, strain Charles River CD (Sprague-Dawley), males, in feed, site: bone, lesion: several types, types named in the paper, dosed 104 weeks, study length 104 weeks): positive
carcinogen call (rat, strain Charles River CD (Sprague-Dawley), males, in feed, site: head, lesion: osteosarcoma, dosed 104 weeks, study length 104 weeks): positive
